Experimental data as given in ChEMBL document CHEMBL1909046, “DrugMatrix in vitro pharmacology data”.

Assays:
[1] = DRUGMATRIX: beta-Lactamase enzyme inhibition (substrate: Nitrocefin); parameters: species or system Bacillus cereus; settings: Not Active = under 50% inhibition at 10 µM
[2] = molecular target: 5-hydroxytryptamine receptor 2B (Homo sapiens, UniProt P41595); assay type: cell membranes, CHO-K1, Membrane; further: in other assays of this panel Not Active means under 50% inhibition at 10 µM
[3] = molecular target: 5-hydroxytryptamine receptor 4 (Cavia porcellus, UniProt O70528); assay type: cell membranes, Dunkin-Hartley, Striatum, Membrane; further: in other assays of this panel Not Active means under 50% inhibition at 10 µM
[4] = DRUGMATRIX: Glutamate, AMPA radioligand binding (ligand: [3H] AMPA); assay type: cell membranes, Rattus norvegicus, Wistar, Cerebral cortex, Membrane; settings: Not Active = under 50% inhibition at 10 µM
[5] = molecular target: Mitogen-activated protein kinase 1 (Homo sapiens, UniProt P28482); assay: DRUGMATRIX: Protein Serine/Threonine Kinase, ERK2 enzyme inhibition (substrate: Myelin Basic Protein); parameters: species or system Escherichia coli; settings: Not Active = under 50% inhibition at 10 µM
Cytochrome P450 2A6 = molecular target: T1, Cytochrome P450 2A6 (Homo sapiens, UniProt P11509); settings: bti-tn-5b1-4; further: in other assays of this panel Not Active means under 50% inhibition at 10 µM
T1 sequence (P11509 whole entry): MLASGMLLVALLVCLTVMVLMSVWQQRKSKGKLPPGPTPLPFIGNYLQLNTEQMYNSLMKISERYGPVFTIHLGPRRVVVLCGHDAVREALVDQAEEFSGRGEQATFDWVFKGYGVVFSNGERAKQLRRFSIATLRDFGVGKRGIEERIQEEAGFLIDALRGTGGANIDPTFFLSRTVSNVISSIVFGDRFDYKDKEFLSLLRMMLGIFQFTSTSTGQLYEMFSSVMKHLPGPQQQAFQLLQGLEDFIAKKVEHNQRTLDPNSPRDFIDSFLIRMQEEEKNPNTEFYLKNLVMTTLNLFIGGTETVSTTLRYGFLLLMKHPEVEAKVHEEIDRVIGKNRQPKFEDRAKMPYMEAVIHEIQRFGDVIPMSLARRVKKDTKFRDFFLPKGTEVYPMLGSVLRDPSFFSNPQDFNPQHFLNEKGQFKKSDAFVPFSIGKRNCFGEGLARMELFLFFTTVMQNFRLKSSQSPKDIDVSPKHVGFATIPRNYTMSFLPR

Sequence of 5-hydroxytryptamine receptor 2B (P41595 whole entry): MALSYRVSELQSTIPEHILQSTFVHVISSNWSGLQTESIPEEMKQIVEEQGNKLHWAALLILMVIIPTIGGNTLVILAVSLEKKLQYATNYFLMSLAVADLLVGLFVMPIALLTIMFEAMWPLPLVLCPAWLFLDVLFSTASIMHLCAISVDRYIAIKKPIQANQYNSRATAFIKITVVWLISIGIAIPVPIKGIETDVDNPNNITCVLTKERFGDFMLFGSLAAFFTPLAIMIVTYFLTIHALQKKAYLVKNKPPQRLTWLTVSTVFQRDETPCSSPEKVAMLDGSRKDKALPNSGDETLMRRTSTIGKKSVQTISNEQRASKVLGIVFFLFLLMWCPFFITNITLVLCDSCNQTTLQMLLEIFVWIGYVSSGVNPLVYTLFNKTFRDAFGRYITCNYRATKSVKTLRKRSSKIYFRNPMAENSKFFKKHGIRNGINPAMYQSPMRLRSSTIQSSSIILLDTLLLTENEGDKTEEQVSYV
Sequence of 5-hydroxytryptamine receptor 4 (O70528 whole entry): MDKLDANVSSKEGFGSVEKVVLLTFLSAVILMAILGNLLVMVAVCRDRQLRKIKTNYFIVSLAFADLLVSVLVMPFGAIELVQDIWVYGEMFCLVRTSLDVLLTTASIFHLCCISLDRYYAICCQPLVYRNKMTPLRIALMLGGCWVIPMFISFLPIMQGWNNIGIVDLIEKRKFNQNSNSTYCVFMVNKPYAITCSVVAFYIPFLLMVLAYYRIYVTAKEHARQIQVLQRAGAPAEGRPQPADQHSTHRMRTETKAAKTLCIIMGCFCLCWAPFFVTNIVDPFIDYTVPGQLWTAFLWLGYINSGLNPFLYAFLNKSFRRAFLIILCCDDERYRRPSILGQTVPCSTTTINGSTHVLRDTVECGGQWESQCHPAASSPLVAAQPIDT
Sequence of Mitogen-activated protein kinase 1 (P28482 whole entry): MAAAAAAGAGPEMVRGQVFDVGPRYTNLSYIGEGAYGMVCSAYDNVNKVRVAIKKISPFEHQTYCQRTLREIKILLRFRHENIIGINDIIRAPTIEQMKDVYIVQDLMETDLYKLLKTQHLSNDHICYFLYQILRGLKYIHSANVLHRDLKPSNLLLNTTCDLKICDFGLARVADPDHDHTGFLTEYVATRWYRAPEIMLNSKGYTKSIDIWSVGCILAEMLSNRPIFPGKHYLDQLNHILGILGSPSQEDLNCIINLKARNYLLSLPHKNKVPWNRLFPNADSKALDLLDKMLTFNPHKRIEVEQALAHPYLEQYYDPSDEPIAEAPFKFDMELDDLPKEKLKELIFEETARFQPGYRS

Row | Molecule | IC50 [1] | Ki [1] | IC50 ([2]; read-out: IC50) [µM] | Ki ([2]; read-out: Ki) [µM] | IC50 [3] | IC50 [4] | Ki [4] | IC50 [5] | IC50 (Cytochrome P450 2A6) | Ki (Cytochrome P450 2A6) | IC50 ([2]; cho-k1) | IC50 ([1]; read-out: IC50) [µM] | Ki ([2]; cho-k1) | Ki [3] | Ki [5]
1 | CC(CN1c2ccccc2Sc2ccccc21)N(C)C (stereo not given) [PROMETHAZINE] | Not Active | Not Active | 0.068 | 0.043 | Not Active | Not Active | Not Active | Not Active | Not Active | Not Active |  |  |  |  | 
2 | NC(N)=Nc1nc(CSCCC(N)=NS(N)(=O)=O)cs1 [FAMOTIDINE] | Not Active | Not Active |  |  | Not Active | Not Active | Not Active | Not Active | Not Active | Not Active | Not Active |  |  |  | 
3 | C[C@]12CC[C@@H](O)C[C@@H]1CC[C@@H]1[C@@H]2CC[C@]2(C)C(=O)CC[C@@H]12 [ANDROSTERONE] | Not Active | Not Active |  |  | Not Active | Not Active | Not Active | Not Active | Not Active | Not Active | Not Active |  |  |  | 
4 | ClC1=C(Cl)[C@]2(Cl)[C@@H]3[C@@H]4C[C@@H]([C@H]5O[C@@H]45)[C@@H]3[C@@]1(Cl)C2(Cl)Cl [DIELDRIN] | Not Active | Not Active |  |  | Not Active | Not Active | Not Active | Not Active | Not Active | Not Active | Not Active |  |  |  | 
5 | CC(=O)[C@]1(O)Cc2c(O)c3c(c(O)c2[C@@H](O[C@H]2C[C@H](N)[C@H](O)[C@H](C)O2)C1)C(=O)c1ccccc1C3=O [IDARUBICIN] | Not Active | Not Active |  |  | Not Active | Not Active | Not Active | Not Active | Not Active | Not Active | Not Active |  |  |  | 
6 | COC(=O)Nc1nc2ccc(Sc3ccccc3)cc2[nH]1 [FENBENDAZOLE] |  |  |  |  | Not Active | Not Active | Not Active | Not Active | Not Active | Not Active | Not Active | 5.99 |  |  | 
7 | Cc1ccnc2c1NC(=O)c1cccnc1N2C1CC1 [NEVIRAPINE] | Not Active | Not Active |  |  | Not Active | Not Active | Not Active | Not Active | Not Active | Not Active | Not Active |  |  |  | 
8 | COPPER(II) OXIDE | Not Active | Not Active |  |  | Not Active | Not Active | Not Active | Not Active | Not Active | Not Active | Not Active |  | Not Active | Not Active | Not Active
9 | OC[C@H]1O[C@@H]2O[C@H]3[C@H](O)[C@@H](O)[C@@H](O[C@H]4[C@H](O)[C@@H](O)[C@@H](O[C@H]5[C@H](O)[C@@H](O)[C@@H](O[C@H]6[C@H](O)[C@@H](O)[C@@H](O[C@H]7[C@H](O)[C@@H](O)[C@@H](O[C@H]8[C@H](O)[C@@H](O)[C@@H](O[C@H]1[C@H](O)[C@H]2O)O[C@@H]8CO)O[C@@H]7CO)O[C@@H]6CO)O[C@@H]5CO)O[C@@H]4CO)O[C@@H]3CO [BETADEX] | Not Active | Not Active |  |  | Not Active | Not Active | Not Active | Not Active | Not Active | Not Active | Not Active |  |  |  | 
10 | O=C(O)CO [GLYCOLIC ACID] | Not Active | Not Active |  |  | Not Active | Not Active | Not Active | Not Active | Not Active | Not Active | Not Active |  |  |  | 
11 | COc1cc(NC(C)CCCN)c2ncccc2c1 (stereo not given) [PRIMAQUINE] | Not Active | Not Active |  |  | Not Active | Not Active | Not Active | Not Active | Not Active | Not Active | Not Active |  |  |  | 
12 | COc1ccc(Cl)cc1C(=O)NCCc1ccc(S(=O)(=O)NC(=O)NC2CCCCC2)cc1 [GLYBURIDE] | Not Active | Not Active |  |  | Not Active | Not Active | Not Active | Not Active | Not Active | Not Active | Not Active |  |  |  | 
13 | CCO [ALCOHOL] | Not Active | Not Active |  |  | Not Active | Not Active | Not Active | Not Active | Not Active | Not Active | Not Active |  |  |  | 
14 | CC(C)(c1ccc(O)cc1)c1ccc(O)cc1 [BISPHENOL A] | Not Active | Not Active |  |  | Not Active | Not Active | Not Active | Not Active | Not Active | Not Active | Not Active |  |  |  | 
15 | CC12CCC(CC1=O)C2(C)C (stereo not given) [CAMPHOR] | Not Active | Not Active |  |  | Not Active | Not Active | Not Active | Not Active | Not Active | Not Active | Not Active |  |  |  | 
16 | O=C(O)c1ccccc1 [BENZOIC ACID] | Not Active | Not Active |  |  | Not Active | Not Active | Not Active | Not Active | Not Active | Not Active | Not Active |  |  |  | 
17 | Oc1ncnc2[nH]ncc12 [ALLOPURINOL] | Not Active | Not Active |  |  | Not Active | Not Active | Not Active | Not Active | Not Active | Not Active | Not Active |  |  |  | 
18 | NC(=O)CN1CCCC1=O | Not Active | Not Active |  |  | Not Active | Not Active | Not Active | Not Active | Not Active | Not Active | Not Active |  |  |  | 
19 | C=CCO [ALLYL ALCOHOL] | Not Active | Not Active |  |  | Not Active | Not Active | Not Active | Not Active | Not Active | Not Active | Not Active |  |  |  | 
20 | CCN1CCN(C(=O)N[C@@H](C(=O)N[C@@H]2C(=O)N3[C@@H]2SC(C)(C)[C@@H]3C(=O)O)c2ccccc2)C(=O)C1=O [PIPERACILLIN] | Not Active | Not Active |  |  | Not Active | Not Active | Not Active | Not Active | Not Active | Not Active | Not Active |  |  |  | 
21 | CCCCCCNC(=O)n1cc(F)c(=O)[nH]c1=O [CARMOFUR] | Not Active | Not Active |  |  | Not Active | Not Active | Not Active | Not Active | Not Active | Not Active | Not Active |  |  |  | 
22 | CCN(CCO)CCCC(C)Nc1ccnc2cc(Cl)ccc12 (stereo not given) [HYDROXYCHLOROQUINE] | Not Active | Not Active |  |  | Not Active | Not Active | Not Active | Not Active | Not Active | Not Active | Not Active |  |  |  | 
23 | Clc1cc(Cl)c(OCC#CI)cc1Cl [HALOPROGIN] | Not Active | Not Active |  |  | Not Active | Not Active | Not Active | Not Active | Not Active | Not Active | Not Active |  |  |  | 
